Results: PubChem BioAssay AID2060902 (Molecular Pharmacology Branch, DTP, NCI, 2025)

Test system: 485368-065-R3-J5-PDC spheroids with HUVEC/MSC, viability
Assay: Anticancer human tumor 485368-065-R3-J5-PDC patient-derived pancreatic carcinoma cell line growth inhibition [RAS]
Conditions: for viability, T/C: stronger effect = lower value
In short: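 Agents were tested in combination matrices in half-log decrements from a top concentration at or near clinical Cmax (10 microM if undetermined). Targets were multi-cell spheroids of tumour lines plus HUVEC and MSC stromal cells.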
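Further: spheroids exposed to agents for seven days before readout.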

CC1(O)CCCC1n1c(=O)c(C(F)F)cc2cnc(NC3CCN(S(C)(=O)=O)CC3)nc21 (centres undefined) + CCn1c(-c2cccnc2C(C)OC)c2c3cc(ccc31)N1CCOC(CC(NC(=O)C(C(C)C)N(C)C(=O)C3(F)CCN(C(=O)C#CC(C)(C)N(C)C)CC3)C(=O)N3CCCC(N3)C(=O)OCC(C)(C)C2)C1
IC50 (curve of first compound, second compound 0.000949 µM): 279 nM | IC50 (curve of first compound, second compound 0.003 µM): 722 nM | IC50 (curve of first compound, second compound 0.00949 µM): 580 nM | IC50 (curve of first compound, second compound 0.03 µM): 254 nM | IC50 (curve of first compound, second compound 0.0949 µM): 636 nM | IC50 (curve of first compound, second compound 0.3 µM): 656 nM | viability, T/C (second compound 0.000949 µM, first compound 0.0316 µM): 106% | viability, T/C (second compound 0.000949 µM, first compound 0.1 µM): 79.2% | viability, T/C (second compound 0.000949 µM, first compound 0.316 µM): 44.9% | viability, T/C (second compound 0.000949 µM, first compound 1 µM): 40.2% | viability, T/C (second compound 0.000949 µM, first compound 3.16 µM): 46% | viability, T/C (second compound 0.000949 µM, first compound 10 µM): 24.5% | viability, T/C (second compound 0.003 µM, first compound 0.0316 µM): 91.4% | viability, T/C (second compound 0.003 µM, first compound 0.1 µM): 82.9% | viability, T/C (second compound 0.003 µM, first compound 0.316 µM): 50.4% | viability, T/C (second compound 0.003 µM, first compound 1 µM): 41.9% | viability, T/C (second compound 0.003 µM, first compound 3.16 µM): 48.5% | viability, T/C (second compound 0.003 µM, first compound 10 µM): 21.3% | viability, T/C (second compound 0.00949 µM, first compound 0.0316 µM): 92.8% | viability, T/C (second compound 0.00949 µM, first compound 0.1 µM): 77.1% | viability, T/C (second compound 0.00949 µM, first compound 0.316 µM): 42.9% | viability, T/C (second compound 0.00949 µM, first compound 1 µM): 48.2% | viability, T/C (second compound 0.00949 µM, first compound 3.16 µM): 44.8% | viability, T/C (second compound 0.00949 µM, first compound 10 µM): 18% | viability, T/C (second compound 0.03 µM, first compound 0.0316 µM): 97.6% | viability, T/C (second compound 0.03 µM, first compound 0.1 µM): 88.6% | viability, T/C (second compound 0.03 µM, first compound 0.316 µM): 40.8% | viability, T/C (second compound 0.03 µM, first compound 1 µM): 41.2% | viability, T/C (second compound 0.03 µM, first compound 3.16 µM): 49.2% | viability, T/C (second compound 0.03 µM, first compound 10 µM): 17.4% | viability, T/C (second compound 0.0949 µM, first compound 0.0316 µM): 96% | viability, T/C (second compound 0.0949 µM, first compound 0.1 µM): 80% | viability, T/C (second compound 0.0949 µM, first compound 0.316 µM): 48.5% | viability, T/C (second compound 0.0949 µM, first compound 1 µM): 41.2% | viability, T/C (second compound 0.0949 µM, first compound 3.16 µM): 49.8% | viability, T/C (second compound 0.0949 µM, first compound 10 µM): 17.4% | viability, T/C (second compound 0.3 µM, first compound 0.0316 µM): 105% | viability, T/C (second compound 0.3 µM, first compound 0.1 µM): 86.1% | viability, T/C (second compound 0.3 µM, first compound 0.316 µM): 47% | viability, T/C (second compound 0.3 µM, first compound 1 µM): 44.8% | viability, T/C (second compound 0.3 µM, first compound 3.16 µM): 48.5% | viability, T/C (second compound 0.3 µM, first compound 10 µM): 13.1%

Cc1nc(N2CCC3(CC2)COC(C)C3N)c(CO)nc1Sc1ccnc(N)c1Cl (centres undefined)
viability, T/C (compound 0.0316 µM): 102% [middle of 4 runs] | viability, T/C (compound 0.1 µM): 93.5% [middle of 4 runs] | viability, T/C (compound 0.316 µM): 88.9% [middle of 4 runs] | viability, T/C (compound 1 µM): 72.8% [middle of 4 runs] | IC50 (curve of compound): > 10000 nM

CCc1c2c(nc3ccc(O)cc13)-c1cc3c(c(=O)n1C2)COC(=O)[C@]3(O)CC + C=CC(=O)N1CCN(c2nc(OCC3CCCN3C)nc3c(F)c(-c4nc(N)cc(C)c4C(F)(F)F)c(Cl)cc23)C(C)C1
IC50 (curve of first compound, second compound 0.00316 µM): 1.96 nM | IC50 (curve of first compound, second compound 0.01 µM): 2.09 nM | IC50 (curve of first compound, second compound 0.0316 µM): 2.15 nM | IC50 (curve of first compound, second compound 0.1 µM): 2.06 nM | IC50 (curve of first compound, second compound 0.316 µM): 2.08 nM | IC50 (curve of first compound, second compound 1 µM): 1.76 nM | viability, T/C (second compound 0.00316 µM, first compound 0.000949 µM): 87.9% | viability, T/C (second compound 0.00316 µM, first compound 0.003 µM): 25.8% | viability, T/C (second compound 0.00316 µM, first compound 0.00949 µM): 15.8% | viability, T/C (second compound 0.00316 µM, first compound 0.03 µM): 6.75% | viability, T/C (second compound 0.00316 µM, first compound 0.0949 µM): 4.49% | viability, T/C (second compound 0.00316 µM, first compound 0.3 µM): 3.28% | viability, T/C (second compound 0.01 µM, first compound 0.000949 µM): 90.6% | viability, T/C (second compound 0.01 µM, first compound 0.003 µM): 28.9% | viability, T/C (second compound 0.01 µM, first compound 0.00949 µM): 17.6% | viability, T/C (second compound 0.01 µM, first compound 0.03 µM): 7.17% | viability, T/C (second compound 0.01 µM, first compound 0.0949 µM): 3.98% | viability, T/C (second compound 0.01 µM, first compound 0.3 µM): 3.67% | viability, T/C (second compound 0.0316 µM, first compound 0.000949 µM): 89.7% | viability, T/C (second compound 0.0316 µM, first compound 0.003 µM): 33.6% | viability, T/C (second compound 0.0316 µM, first compound 0.00949 µM): 13% | viability, T/C (second compound 0.0316 µM, first compound 0.03 µM): 6.26% | viability, T/C (second compound 0.0316 µM, first compound 0.0949 µM): 4.82% | viability, T/C (second compound 0.0316 µM, first compound 0.3 µM): 3.26% | viability, T/C (second compound 0.1 µM, first compound 0.000949 µM): 85.4% | viability, T/C (second compound 0.1 µM, first compound 0.003 µM): 32.5% | viability, T/C (second compound 0.1 µM, first compound 0.00949 µM): 12.2% | viability, T/C (second compound 0.1 µM, first compound 0.03 µM): 6.25% | viability, T/C (second compound 0.1 µM, first compound 0.0949 µM): 4.43% | viability, T/C (second compound 0.1 µM, first compound 0.3 µM): 3.35% | viability, T/C (second compound 0.316 µM, first compound 0.000949 µM): 81.7% | viability, T/C (second compound 0.316 µM, first compound 0.003 µM): 34.7% | viability, T/C (second compound 0.316 µM, first compound 0.00949 µM): 15.1% | viability, T/C (second compound 0.316 µM, first compound 0.03 µM): 5.63% | viability, T/C (second compound 0.316 µM, first compound 0.0949 µM): 4.4% | viability, T/C (second compound 0.316 µM, first compound 0.3 µM): 3.28% | viability, T/C (second compound 1 µM, first compound 0.000949 µM): 74.6% | viability, T/C (second compound 1 µM, first compound 0.003 µM): 26.8% | viability, T/C (second compound 1 µM, first compound 0.00949 µM): 16.5% | viability, T/C (second compound 1 µM, first compound 0.03 µM): 5.78% | viability, T/C (second compound 1 µM, first compound 0.0949 µM): 5.14% | viability, T/C (second compound 1 µM, first compound 0.3 µM): 3.4%
